Reference: PubChem BioAssay (NCI)
Several values for one entry are separate records, joined by “and”; a condition that tells them apart may be missing. Identical values can stand only once.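 Results reflect a 48-hour exposure of cells in 96-well plates to compound at five concentrations. The concentration for 50% growth inhibition is given as GI50. At the TGI there is no net growth.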

Columns and labels:
Assay in all cases: NCI-60 cell line screen, 48 h
[1] = test system: COLO 205 colon
[2] = test system: SNB-78 CNS
[3] = test system: HT29 colon
[4] = test system: NCI-H522 lung
[5] = test system: NCI-H23 lung
[6] = test system: SNB-19 CNS
[7] = test system: LOX IMVI melanoma
[8] = test system: DMS 114 small cell lung
[9] = test system: XF 498 CNS
[10] = test system: DMS 273 small cell lung

Structure (SMILES) | TGI [1] | TGI [2] | TGI [3] | TGI [4] | TGI [5] [µM] | TGI [6] [µM] | TGI [7] | TGI [8] | TGI [9] [µM] | TGI [10] [µM] | GI50 [1] [µM] | GI50 [3] [µM] | GI50 [4] [µM] | GI50 [5] | GI50 [7] [µM] | GI50 [10] [µM] | GI50 [2] [µM] | GI50 [6] | GI50 [8] [µM] | GI50 [9] [µM]
CCN(CC)CC(C)(C)C(=O)/C=C/c1ccc(/C=C/C(=O)C(C)(C)CN(CC)CC)cc1 | 1.29 µM | 4.64 µM | 0.534 µM | 0.194 µM | 4.73 | 4.21 | 1.04 µM | 0.876 µM | 1.03 | – | – | – | – | – | – | – | – | – | – | –
N#Cc1cc(NC(=O)c2ccccc2)c(=O)n2c1[nH]c1ccccc12 | > 100 µM | > 100 µM | > 100 µM | 42 µM | 57.7 | 74.7 | – | 95.5 µM | > 100 | > 100 | – | – | – | – | – | – | – | – | – | –
NC(=Nc1nc(-c2ccccn2)cc2ccccc12)c1ccccn1 | – | > 100 µM | > 100 µM | – | > 61.6 | > 89.5 | 0.677 µM and 1.23 µM | – | 0.0644 | – | 0.00195 | 0.0708 | 0.0458 | 0.0743 µM | 0.158 | 0.0231 | – | – | – | –
COc1ccc(NC(=O)CCc2cc(C(C)(C)C)n[nH]2)cc1 | > 100 µM | > 100 µM | > 100 µM | > 100 µM | > 100 | > 100 | > 100 µM | – | > 100 | > 100 | – | – | – | – | – | – | – | – | – | –
C=C1C(=O)OC2C1C(OC(=O)/C(C)=C\C)CC1(CO1)C1C(O)C=C(C)C21O (configuration not stated) | 2.62 µM | 34.9 µM | 31.4 µM | 2.3 µM | 27.2 | 35.2 | 30.6 µM | 20.6 µM | 25.7 | 20 | – | – | – | – | – | – | – | – | – | –
Cc1cc(C)nc(NS(=O)(=O)c2ccc(NC(=O)c3ccc(Cl)c4c(Nc5ccc(S(=O)(=O)N=C(N)N)cc5)c5ccccc5nc34)cc2)n1 | > 100 µM | > 100 µM | 30.2 µM | 36.1 µM | 17.5 | > 100 | 44.4 µM | 93.6 µM | > 100 | > 100 | – | – | – | – | – | – | – | – | – | –
Cc1ccc(/C=C(\C#N)c2ccccc2)cc1 | > 100 µM | > 100 µM | > 100 µM | > 100 µM | > 100 | – | > 100 µM | > 100 µM | – | > 100 | – | – | – | – | – | – | – | – | – | –
NNC(=O)N/N=C1\C(=O)N(c2nccs2)C(=O)C(=O)C1c1nc2ccccc2s1 (configuration not stated) | > 100 µM | > 100 µM | > 100 µM | – | > 100 | > 100 | > 100 µM | > 100 µM | > 100 | > 100 | – | – | – | – | – | – | – | – | – | –
Cc1nc(Nc2ccccc2)sc1C(=O)CC(=O)C(=O)NC12CC3CC(CC(C3)C1)C2 | > 100 µM | > 100 µM | > 100 µM | > 100 µM | > 100 | > 100 | > 100 µM | > 100 µM | > 100 | > 100 | – | – | – | – | – | – | – | – | – | –
COc1ccc(/C=C\c2cc(OC)c(OC)c(OC)c2)c(O)c1O | 30.1 µM and 90.2 µM | > 89.6 µM and 48.5 µM | 36.1 µM and 103 µM | 0.262 µM and 0.823 µM | – | 85.3 | 16.9 µM and 8.07 µM | 3.92 µM and 0.568 µM | – | 63.1 | – | 20.1 | – | 0.0598 µM and 0.0848 µM | 0.0512 | 0.303 | 1.86 | 0.0517 µM and 0.05 µM | 0.196 | 2.95
